A value given as a limit tells only on which side of the number the result lay.

The first experiment relates to in vitro grown Mycobacteria (M. tuberculosis). The experiment can be described thus: QUM: Quantification of in vitro grown Mycobacteria (in vitro growth fluorescence assay). The class given is cell-based. The note with it: MIC, 80% bacterial growth inhibition; in vitro growth. The source says:
A 120,000 small molecule compound library was screened using a validated phenotypic cell-based assay (WO2010003533A2). Active compounds from the primary screen were confirmed via dose response in the intracellular (QIM) assay and an in vitro (QUM) assay, wherein the abbreviation “QIM” stands for Quantification of Intracellular Mycobacteria and the abbreviation “QUM” stands for Quantification of in vitro grown Mycobacteria. […] The MIC is the minimum concentration of compound required to obtain 80% bacterial growth inhibition.
The imidazopyridine compounds (scaffolds Ia and Ib; see Table 1) underwent derivatization according to the methods outlined below (Schemes 1-13). Resulting derivatives were examined for inhibitory activity (MIC) using the assays described above (Example 1) and the results are summarized in Table 1.
With “6-Chloro-N-(4-(4-(cyclopentyloxymethyl)piperidin-1-yl)benzyl)-2-ethylimidazo[1,2-a]pyridine-3-carboxamide [Compound 293]”, the “QUM (μM)” value is given as “+++ (+++ indicates <1 uM)”.

Staying with this experiment, now noted: Mycobacterium tuberculosis; MIC, 80% bacterial growth inhibition; in vitro growth; read-out: QUM.
Turning to `CCc1nc2cc(OC)ccn2c1C(=O)NCc1ccc(N2CCN(c3ccc(F)cc3)CC2)cc1` [Compound 114, 2-Ethyl-N-(4-(4-(4-fluorophenyl)piperazin-1-yl)benzyl)-7-methoxyimidazo[1,2-a]pyridine-3-carboxamide], the MIC is less than 1 µM.

`CCc1nc2c(OC)cccn2c1C(=O)NCc1ccc(N2CCN(c3ccc(F)cc3)CC2)cc1` [Compound 115, 2-Ethyl-N-(4-(4-(4-fluorophenyl)piperazin-1-yl)benzyl)-8-methoxyimidazo[1,2-a]pyridine-3-carboxamide]: the MIC was less than 1 µM.

As to `CCc1nc2cc(Cl)ccn2c1C(=O)NCc1ccc(N2CCC(COC3CCCC3)CC2)cc1` [Compound 169, 7-Chloro-N-(4-(4-(cyclopentyloxymethyl)piperidin-1-yl)benzyl)-2-ethylimidazo[1,2-a]pyridine-3-carboxamide], the MIC is less than 1 µM.

Turning to `CCc1nc2cc(Cl)ccn2c1C(=O)NCc1ccc(N2CCC(COC(F)F)CC2)cc1` [Compound 183, 7-Chloro-N-(4-(4-((difluoromethoxy)methyl)piperidin-1-yl)benzyl)-2-ethylimidazo[1,2-a]pyridine-3-carboxamide], the MIC was less than 1 µM.

As for `CCc1nc2ccc(C)cn2c1C(=O)NCc1ccc(N2CCOCC2)cc1` [Compound 219, 2-ethyl-6-methyl-N-(4-morpholinobenzyl)imidazo[1,2-a]pyridine-3-carboxamide], the MIC was less than 1 µM.

For the compound `CCc1nc2ccc(Cl)cn2c1C(=O)NCc1ccc(N2CCC(C(=O)O)CC2)cc1` [Compound 220, 1-(4-((6-Chloro-2-ethylimidazo[1,2-a]pyridine-3-carboxamido)methyl)phenyl)piperidine-4-carboxylic acid], the MIC is less than 1 µM.

On to `CCc1nc2cc(Cl)ccn2c1C(=O)NCc1ccc(N2CC3CC=CCC3C2)cc1` (centres unmarked) [Compound 223, 7-Chloro-N-(4-(3a,4-dihydro-1H-isoindol-2(3H,7H,7aH)-yl)benzyl)-2-ethylimidazo[1,2-a]pyridine-3-carboxamide], for which the MIC was less than 1 µM.

For `CCc1nc2cc(Cl)ccn2c1C(=O)NCc1ccc(N2CC3CCCCC3C2)cc1` (centres unmarked) [Compound 224, N-(4-(1H-isoindol-2(3H,3aH,4H,5H,6H,7H,7aH)-yl)benzyl)-7-chloro-2-ethylimidazo[1,2-a]pyridine-3-carboxamide], the MIC was less than 1 µM.

Regarding `CCc1nc2cc(Cl)ccn2c1C(=O)NCc1ccc(-n2cc3c(c2)CCCC3)cc1` [Compound 225, 7-Chloro-2-ethyl-N-(4-(4,5,6,7-tetrahydro-2H-isoindol-2-yl)benzyl)imidazo[1,2-a]pyridine-3-carboxamide], the MIC is less than 1 µM.

`CCc1nc2cc(C)ccn2c1C(=O)NCc1ccc(OC(F)(F)F)cc1` [Compound 249, 2-Ethyl-7-methyl-N-(4-(trifluoromethoxy)benzyl)imidazo[1,2-a]pyridine-3-carboxamide]: the MIC was less than 1 µM.

With `CCc1nc2cc(Br)ccn2c1C(=O)NCc1ccc(OC(F)(F)F)cc1` [Compound 250, 7-Bromo-2-ethyl-N-(4-(trifluoromethoxy)benzyl)imidazo[1,2-a]pyridine-3-carboxamide], the MIC was less than 1 µM.

In the case of `CCc1nc2c(F)cccn2c1C(=O)NCc1ccc(OC(F)(F)F)cc1` [Compound 251, 2-Ethyl-8-fluoro-N-(4-(trifluoromethoxy)benzyl)imidazo[1,2-a]pyridine-3-carboxamide], the MIC was less than 1 µM.

With `CCc1nc2cc(Cl)ccn2c1C(=O)NCc1ccc(-c2ccc(C=O)cc2)cc1` [Compound 252, 7-Chloro-2-ethyl-N-((4′-formylbiphenyl-4-yl)methyl)imidazo[1,2-a]pyridine-3-carboxamide], the MIC is less than 1 µM.

Take `CCc1nc2ccc(C)cn2c1C(=O)NCc1ccc(Oc2ccc(OC(F)(F)F)cc2)cc1` [Compound 255, 2-Ethyl-6-methyl-N-(4-(4-(trifluoromethoxy)phenoxy)benzyl)imidazo[1,2-a]pyridine-3-carboxamide]: the MIC is less than 1 µM.

Regarding `CCc1nc2cc(Cl)ccn2c1C(=O)OCc1ccc(Oc2ccc(F)cc2)cc1` [Compound 264], the MIC was less than 1 µM.

As to `CCc1nc2ccccn2c1C(=O)NCc1ccc(N2CCC(c3ccc(F)cc3)CC2)cc1` [Compound 285, 2-Ethyl-N-(4-(4-(4-fluorophenyl)piperidin-1-yl)benzyl)imidazo[1,2-a]pyridine-3-carboxamide], the MIC was less than 1 µM.

On to `CCc1nc2ccc(Cl)cn2c1C(=O)NCc1ccc(N2CCC(c3ccc(OC(F)(F)F)cc3)CC2)cc1` [Compound 289, 6-Chloro-2-ethyl-N-(4-(4-(4-(trifluoromethoxy)phenyl)piperidin-1-yl)benzyl)imidazo[1,2-a]pyridine-3-carboxamide], for which the MIC was less than 1 µM.

`CCc1nc2cc(Cl)ccn2c1C(=O)NCc1ccc(N2CCC(c3ccc(OC(F)(F)F)cc3)CC2)cc1` [Compound 290, 7-Chloro-2-ethyl-N-(4-(4-(4-(trifluoromethoxy)phenyl)piperidin-1-yl)benzyl)imidazo[1,2-a]pyridine-3-carboxamide]: the MIC is less than 1 µM.

Turning to `CCOC(=O)C1CCN(c2ccc(CNC(=O)c3c(CC)nc4ccc(Cl)cn34)cc2)CC1` [Compound 300, Ethyl 1-(4-((6-chloro-2-ethylimidazo[1,2-a]pyridine-3-carboxamido)methyl)phenyl)piperidine-4-carboxylate], the MIC is less than 1 µM.

Consider `CCOC(=O)C1CCN(c2ccc(CNC(=O)c3c(CC)nc4cc(Cl)ccn34)cc2)CC1` [Compound 301, Ethyl 1-(4-((7-chloro-2-ethylimidazo[1,2-a]pyridine-3-carboxamido)methyl)phenyl)piperidine-4-carboxylate], for which the MIC is less than 1 µM.

For the compound `CCc1nc2cc(Cl)ccn2c1C(=O)NCc1ccc(N2CCC(C(=O)O)CC2)cc1` [Compound 302, 1-(4-((7-Chloro-2-ethylimidazo[1,2-a]pyridine-3-carboxamido)methyl)phenyl)piperidine-4-carboxylic acid], the MIC was less than 1 µM.

Consider `CCc1nc2c(Br)cccn2c1C(=O)NCc1ccc(N2CCN(c3ccc(F)cc3)CC2)cc1` [Compound 305, 8-Bromo-2-ethyl-N-(4-(4-(4-fluorophenyl)piperazin-1-yl)benzyl)imidazo[1,2-a]pyridine-3-carboxamide], for which the MIC was less than 1 µM.

Consider `CCc1nc2c(-c3ccncc3)cccn2c1C(=O)NCc1ccc(N2CCN(c3ccc(F)cc3)CC2)cc1` [Compound 312, 2-Ethyl-N-(4-(4-(4-fluorophenyl)piperazin-1-yl)benzyl)-8-(pyridin-4-yl)imidazo[1,2-a]pyridine-3-carboxamide], for which the MIC is less than 1 µM.

Consider `CCc1nc2ccc(OC)cn2c1C(=O)NCc1ccc(N2CCOCC2)cc1` [Compound 313], for which the MIC is less than 1 µM.

Regarding `CCc1nc2cc(OC)ccn2c1C(=O)NCc1ccc(N2CCOCC2)cc1` [Compound 314, 2-Ethyl-7-methoxy-N-(4-morpholinobenzyl)imidazo[1,2-a]pyridine-3-carboxamide], the MIC was less than 1 µM.

On to `CCc1nc2c(OC)cccn2c1C(=O)NCc1ccc(N2CCOCC2)cc1` [Compound 318, 2-Ethyl-8-methoxy-N-(4-morpholinobenzyl)imidazo[1,2-a]pyridine-3-carboxamide], for which the MIC was less than 1 µM.

For the compound `CCc1nc2c(Br)cccn2c1C(=O)NCc1ccc(N2CCOCC2)cc1` [Compound 320, 8-Bromo-2-ethyl-N-(4-morpholinobenzyl)imidazo[1,2-a]pyridine-3-carboxamide], the MIC is less than 1 µM.

In the case of `CCc1nc2c(-c3ccncc3)cccn2c1C(=O)NCc1ccc(N2CCOCC2)cc1` [Compound 327, 2-Ethyl-N-(4-morpholinobenzyl)-8-(pyridin-4-yl)imidazo[1,2-a]pyridine-3-carboxamide], the MIC is greater than 20 µM.

As for `CCc1nc2ccc(Cl)cn2c1C(=O)NCc1ccc(C(=O)NCc2ccc(C(=O)N3CCOCC3)cc2)cc1` [Compound 332, 6-Chloro-2-ethyl-N-(4-((4-(morpholine-4-carbonyl)benzyl)carbamoyl)benzyl) imidazo[1,2-a]pyridine-3-carboxamide], the MIC is greater than 20 µM.

In the case of `CCc1nc2cc(Cl)ccn2c1C(=O)NCc1ccc(C(=O)N2CCOCC2)cc1` [Compound 333, 7-Chloro-2-ethyl-N-(4-(morpholine-4-carbonyl)benzyl)imidazo[1,2-a]pyridine-3-carboxamide], the MIC is greater than 20 µM.

Take `CCc1nc2ccccn2c1C(=O)NCc1ccc2oc(-c3ccc(F)cc3)nc2c1` [Compound 334, 2-Ethyl-N-((2-(4-fluorophenyl)benzo[d]oxazol-5-yl)methyl)imidazo[1,2-a]pyridine-3-carboxamide]: the MIC is less than 1 µM.

Turning to `CCc1nc2ccc(Cl)cn2c1C(=O)NCc1ccc2oc(-c3ccc(F)cc3)nc2c1` [Compound 335, 6-Chloro-2-ethyl-N-((2-(4-fluorophenyl)benzo[d]oxazol-5-yl)methyl)imidazo[1,2-a]pyridine-3-carboxamide], the MIC was less than 1 µM.

In the case of `CCc1nc2cc(Cl)ccn2c1C(=O)NCc1ccc2oc(-c3ccc(F)cc3)nc2c1` [Compound 336, 7-Chloro-2-ethyl-N-((2-(4-fluorophenyl)benzo[d]oxazol-5-yl)methyl)imidazo[1,2-a]pyridine-3-carboxamide], the MIC was less than 1 µM.

Consider `CCc1nc2ccc(Cl)cn2c1C(=O)NCc1ccc(N2CCC(c3ccc(Cl)cc3)CC2)cc1` [Compound 337, 6-Chloro-N-(4-(4-(4-chlorophenyl)piperidin-1-yl)benzyl)-2-ethylimidazo[1,2-a]pyridine-3-carboxamide], for which the MIC was less than 1 µM.

Source of the values: patent US8865734B2 (priority 2010, dated 2014).
